Counter-ions that a name gives are not always drawn.
How the values were obtained:
[1] = Stability: active ingredient content of coated tablets, initial and after aging at 40° C. and 75% relative humidity; type: physicochemical
[2] = Dissolution time test (pH 6.8 phosphate buffer, 900 mL, paddle 100 rpm, HPLC); type: physicochemical; conditions: for % of dissolved actives at 45 min after beginning the Dissolution time test: pH 6.8 phosphate buffer 900 mL paddle 100 rpm
Description: The dissolution time of the actives can be measured by introducing one tablet (weight 1090 mg) in 900 mL of water at 37° C. buffered to pH 6.8 with a phosphate buffer wherein the medium is mixed with a paddle at 100 rpm. The phosphate buffer is prepared by dissolving 7 g of anhydrous dibasic sodium phosphate in 5 L of water, and adjusting with phosphoric acid to a pH of 6.8. The percentage of the actives dissolved at a given time can be measured by high performance liquid chromatography (HPLC).

[3] = coated tablet of Example 1, aging 1 month at 40° C. and 75% relative humidity
[4] = coated tablet of Example 1, aging 2 months at 40° C. and 75% relative humidity
[5] = coated tablet of Example 1, initial
[6] = coated tablet of Example 1, aged 1 month at 40° C. and 75% relative humidity
[7] = coated tablet of Example 1, aged 2 months at 40° C. and 75% relative humidity

| SMILES | percentage of active ingredient measured relative to the target quantity [1, 3] [%] | percentage of active ingredient measured relative to the target quantity [1, 4] [%] | percentage of active ingredient measured relative to the target quantity [1, 5] [%] | % of dissolved actives at 45 min after beginning the Dissolution time test [2, 6] [%] | % of dissolved actives at 45 min after beginning the Dissolution time test [2, 7] [%] | % of dissolved actives at 45 min after beginning the Dissolution time test [2, 5] [%] | cumulative percentage of active released ([2]; tablet of Example 1, 5 min) | cumulative percentage of active released ([2]; tablet of Example 1, 10 min) | cumulative percentage of active released ([2]; tablet of Example 1, 15 min) | cumulative percentage of active released ([2]; tablet of Example 1, 20 min) | cumulative percentage of active released ([2]; tablet of Example 1, 30 min) | cumulative percentage of active released ([2]; tablet of Example 1, 45 min) | cumulative percentage of active released ([2]; tablet of Example 1, 60 min) |
| --- | --- | --- | --- | --- | --- | --- | --- | --- | --- | --- | --- | --- | --- |
| CC[C@@H](CO)NCCN[C@@H](CC)CO [Ethambutol HCl, Ethambutol Hydrochloride] | 100.3 | 101.4 | 100.6 | 100 | 99 | 100 | 84 | 99 | 99 | 99 | 99 | 99 | 99 |
| NNC(=O)c1ccncc1 [Isoniazid] | 97.8 | 98.20 | 100.0 | 98 | 100 | 98 | 86 | 99 | 100 | 100 | 100 | 100 | 100 |
| NC(=O)c1cnccn1 [Pyrazinamide] | 101.2 | 100.5 | 101.3 | 102 | 102 | 102 | 90 | 101 | 102 | 102 | 102 | 102 | 102 |
